According to patent US11214803B2, “Modulators of YAP1 expression” (Ionis Pharmaceuticals, Inc., priority 2019, dated 2022):
Strand notation (5' to 3'): a small letter for the sugar, then the base; units joined by * are phosphorothioate-linked, units joined directly phosphodiester-linked; [ ] holds rarer units or linkages, { } end groups; capitals alone tell only the bases. k = constrained ethyl (cEt); [5mC] = 5-methylcytosine; d = 2'-deoxy (DNA)

What follows are substances tested on Yap1 mRNA (assay: Antisense inhibition of human Yap1 in A-431 cells by cEt gapmers, single dose (Example 1, RTS4814)). Conditions: A-431 cells, 5,000 cells per well, free uptake, 2,000 nM modified oligonucleotide, approx. 48 hours, RTS4814, normalized to RIBOGREEN; Table 3.
Type: cell-based
Protocol: Modified oligonucleotides were designed to target a Yap1 nucleic acid and were tested for their effect on Yap1 mRNA level in vitro. The modified oligonucleotides were tested in a series of experiments that had similar culture conditions. Cultured A-431 cells at a density of 5,000 cells per well were treated using free uptake with 2,000 nM of modified oligonucleotide. After a treatment period of approximately 48 hours, RNA was isolated from the cells and Yap1 mRNA levels were measured by quantitative real-time RTPCR. Human primer probe set RTS4814 (forward sequence […], designated herein as SEQ ID NO.: 11; reverse sequence […], designated herein as SEQ ID NO.: 12; probe sequence […], designated herein as SEQ ID NO.: 13) was used to measure mRNA levels. Yap1 mRNA levels were normalized to total RNA content, as measured by RIBOGREEN®. Results are presented in the tables below as percent control of the amount of Yap1 mRNA relative to untreated control cells (% UTC). The modified oligonucleotides with percent control values marked with an asterisk (*) target the amplicon region of the primer probe set. Additional assays may be used to measure the potency and efficacy of the modified oligonucleotides targeting the amplicon region.
The newly designed modified oligonucleotides in the Tables below were designed as 3-10-3 cEt gapmers. The gapmers are 16 nucleosides in length, wherein the central gap segment comprises of ten 2′-deoxynucleosides and is flanked by wing segments on the 5′ direction and the 3′ direction comprising three nucleosides each. Each nucleoside in the 5′ wing segment and each nucleoside in the 3′ wing segment has a cEt sugar modification. The internucleoside linkages throughout each gapmer are phosphorothioate (P═S) linkages. All cytosine residues throughout each gapmer are 5-methylcytosines.
“Start site” indicates the 5′-most nucleoside to which the gapmer is targeted in the human gene sequence. “Stop site” indicates the 3′-most nucleoside to which the gapmer is targeted human gene sequence. […] Activity of the modified oligonucleotide may be defined in a different experiment.

Row | Substance | YAP1 (% UTC)
1 | 715489 (antisense kA*kA*k[5mC]*dT*dA*dT*dT*dA*d[5mC]*dT*dT*d[5mC]*dA*kT*kA*kG) [Compound 715489] | 90
2 | 715510 (antisense kA*kT*kT*dT*dG*d[5mC]*dT*dG*dT*dG*d[5mC]*dT*dG*kG*kG*kA) [Compound 715510] | 22
3 | 715534 (kT*k[5mC]*k[5mC]*d[5mC]*d[5mC]*dA*dG*dG*dT*d[5mC]*dA*dG*d[5mC]*kA*kT*kG; antisense) [Compound 715534] | 112
4 | 715597 (antisense k[5mC]*kT*kG*dG*dT*dT*d[5mC]*dA*dT*dG*dG*d[5mC]*dT*kG*kA*kA) [Compound 715597] | 89
5 | 715474 (antisense k[5mC]*kT*kT*dT*d[5mC]*dT*dT*dT*dA*dT*d[5mC]*dT*dA*kG*k[5mC]*kT) [Compound 715474] | 78
6 | 715522 (kA*k[5mC]*kT*d[5mC]*dT*dT*d[5mC]*dT*dT*dT*d[5mC]*d[5mC]*dA*k[5mC]*kT*k[5mC]; antisense) [Compound 715522] | 87
7 | 715630 (antisense kA*kA*kG*dA*dG*d[5mC]*d[5mC]*dT*dA*d[5mC]*d[5mC]*dT*dG*kA*k[5mC]*kA) [Compound 715630] | 94
8 | 715465 (antisense kG*kT*k[5mC]*d[5mC]*dA*d[5mC]*dA*dT*dT*dT*dG*dT*d[5mC]*k[5mC]*k[5mC]*kA) [Compound 715465] | 91
9 | 715543 (kA*k[5mC]*kT*dA*d[5mC]*dT*dT*dG*dA*dA*dG*dA*dA*k[5mC]*kT*kA; antisense) [Compound 715543] | 72
10 | 715633 (kG*kT*kG*dA*dT*dA*dG*dG*dT*dG*d[5mC]*d[5mC]*dA*k[5mC]*kT*kA; antisense) [Compound 715633] | 78
11 | 715480 (antisense kG*kG*kA*dA*dA*d[5mC]*d[5mC]*dA*dT*dT*dA*dT*dT*kA*k[5mC]*kT) [Compound 715480] | 23
12 | 715540 (kT*kG*kA*dA*dG*dA*dA*d[5mC]*dT*dA*dT*dT*dT*k[5mC]*k[5mC]*kT; antisense) [Compound 715540] | 82
13 | 715525 (kT*kT*kA*d[5mC]*dT*dT*dT*dA*dA*dG*dA*dA*dG*kT*kA*kT; antisense) [Compound 715525] | 100
14 | 715618 (antisense kA*kT*kA*dA*dG*dA*d[5mC]*dG*dG*dA*dT*dA*dA*kA*kA*kA) [Compound 715618] | 101
15 | 715453 (antisense kA*kG*kG*dT*dG*d[5mC]*d[5mC]*dA*d[5mC]*dT*dG*dT*dT*kA*kA*kG) [Compound 715453] | 59
16 | 715441 (antisense k[5mC]*kT*k[5mC]*dT*dG*dG*dT*dT*d[5mC]*dA*dT*dG*dG*k[5mC]*kA*kA) [Compound 715441] | 57
17 | 715579 (k[5mC]*kT*kG*dT*d[5mC]*dT*dG*dG*dA*dA*dT*dA*d[5mC]*kA*k[5mC]*kA; antisense) [Compound 715579] | 100

Same assay, conditions: Table 1; A-431 cells, free uptake, 2,000 nM, approximately 48 hours, RTS4814; Yap1 mRNA relative to untreated control cells

Row | Substance | YAP1 (% UTC)
18 | 715475 (antisense kA*kG*k[5mC]*dT*dT*dT*d[5mC]*dT*dT*dT*dA*dT*d[5mC]*kT*kA*kG) [Compound 715475] | 103
19 | 715589 (k[5mC]*k[5mC]*kA*dG*d[5mC]*dA*dG*d[5mC]*dT*dA*dA*d[5mC]*dA*kG*k[5mC]*kT; antisense) [Compound 715589] | 107
20 | 715568 (kA*kA*kG*dG*dT*dA*dG*dG*dA*dT*dA*dA*dA*kT*kG*kA; antisense) [Compound 715568] | 116
21 | 715445 (antisense k[5mC]*kA*kT*d[5mC]*d[5mC]*dT*dG*d[5mC]*dT*d[5mC]*d[5mC]*dA*dG*kT*kG*kT) [Compound 715445] | 87
22 | 715577 (kG*k[5mC]*kA*dT*dT*d[5mC]*dA*d[5mC]*dA*dG*dA*dG*dT*kT*kA*kA; antisense) [Compound 715577] | 21
23 | 715454 (antisense kA*kT*kA*dG*dG*dT*dG*d[5mC]*d[5mC]*dA*d[5mC]*dT*dG*kT*kT*kA) [Compound 715454] | 78
24 | 715628 (antisense kG*k[5mC]*k[5mC]*dT*dA*d[5mC]*d[5mC]*dT*dG*dA*d[5mC]*dA*dT*kT*kT*kT) [Compound 715628] | 114
25 | 715439 (antisense kG*kG*kT*dT*d[5mC]*dA*dT*dG*dG*d[5mC]*dA*dA*dA*kA*k[5mC]*kG) [Compound 715439] | 99
26 | 715574 (kT*kA*k[5mC]*d[5mC]*dA*dA*dA*dA*d[5mC]*dG*dA*dG*dG*kG*kT*k[5mC]; antisense) [Compound 715574] | 118
27 | 715484 (antisense kT*kA*k[5mC]*dT*d[5mC]*dT*dT*dT*dG*dG*dA*dA*dA*k[5mC]*k[5mC]*kA) [Compound 715484] | 123
28 | 715412 (k[5mC]*kT*kG*d[5mC]*dA*dT*d[5mC]*dA*dG*dT*dA*d[5mC]*dT*kG*kG*k[5mC]; antisense) [Compound 715412] | 66
29 | 715463 (antisense k[5mC]*kT*kG*dT*dA*dG*d[5mC]*dT*dG*d[5mC]*dT*d[5mC]*dA*kT*kG*k[5mC]) [Compound 715463] | 73
30 | 715421 (kG*kT*kG*dA*dT*dT*dT*dA*dA*dG*dA*dA*dG*kT*kA*kT; antisense) [Compound 715421] | 71

Same assay, conditions: Table 2; A-431 cells, free uptake, 2,000 nM, approximately 48 hours, RTS4814; Yap1 mRNA relative to untreated control cells

Row | Substance | YAP1 (% UTC)
31 | 715479 (antisense kA*kA*kA*d[5mC]*d[5mC]*dA*dT*dT*dA*dT*dT*dA*d[5mC]*kT*k[5mC]*k[5mC]) [Compound 715479] | 38
32 | 715512 (antisense kA*kG*kG*d[5mC]*dG*d[5mC]*dG*d[5mC]*dG*d[5mC]*dA*dT*dT*kG*kT*kG) [Compound 715512] | 97
33 | 715545 (kA*k[5mC]*k[5mC]*dA*dA*d[5mC]*dT*dA*d[5mC]*dT*dT*dG*dA*kA*kG*kA; antisense) [Compound 715545] | 87
34 | 715593 (antisense kA*kT*kT*dT*d[5mC]*dT*dT*dT*dG*dG*d[5mC]*dA*dG*kA*kG*kA) [Compound 715593] | 60
35 | 715407 (kG*kG*k[5mC]*dT*dT*dG*dA*dA*dG*dA*dA*dG*dG*kA*kG*kT; antisense) [Compound 715407] | 53
36 | 715452 (antisense kG*kT*k[5mC]*dA*dT*dT*dG*dT*dT*d[5mC]*dT*d[5mC]*dA*kA*kT*kT) [Compound 715452] | 71
37 | 715590 (kT*kT*kG*dG*d[5mC]*dA*dG*dA*dG*dA*dT*dA*dA*kA*kA*k[5mC]; antisense) [Compound 715590] | 84
38 | 715629 (antisense kG*kA*kG*d[5mC]*d[5mC]*dT*dA*d[5mC]*d[5mC]*dT*dG*dA*d[5mC]*kA*kT*kT) [Compound 715629] | 112
39 | 715566 (kT*kA*kG*dG*dA*dT*dA*dA*dA*dT*dG*dA*dA*kT*kT*kA; antisense) [Compound 715566] | 94
40 | 715596 (antisense kG*kT*kT*d[5mC]*dA*dT*dG*dG*d[5mC]*dT*dG*dA*dA*kA*kT*kG) [Compound 715596] | 104
